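Growth conditions: 96-well plates. Treatment: test compound, 48 hours, 5 concentrations. Analysis: linear interpolation between bracketing concentrations; unreached endpoints set to highest concentration. The concentration for 50% growth inhibition is given as GI50. At the TGI there is no net growth.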
Assays:
Experiment in all cases: NCI-60 cell line screen, 48 h
CAKI-1 renal = test system: CAKI-1 renal
MOLT-4 leukemia = test system: MOLT-4 leukemia
OVCAR-8 ovarian = test system: OVCAR-8 ovarian
SF-539 CNS = test system: SF-539 CNS
SK-MEL-2 melanoma = test system: SK-MEL-2 melanoma
SK-MEL-28 melanoma = test system: SK-MEL-28 melanoma
SNB-75 CNS = test system: SNB-75 CNS
HS 578T breast = test system: HS 578T breast
NCI-H23 lung = test system: NCI-H23 lung
NCI/ADR-RES ovarian = test system: NCI/ADR-RES ovarian

| Compound | TGI (CAKI-1 renal) | TGI (MOLT-4 leukemia) | TGI (OVCAR-8 ovarian) | TGI (SF-539 CNS) | TGI (SK-MEL-2 melanoma) | TGI (SK-MEL-28 melanoma) | TGI (SNB-75 CNS) | TGI (HS 578T breast) | TGI (NCI-H23 lung) | TGI (NCI/ADR-RES ovarian) | GI50 (HS 578T breast) | GI50 (MOLT-4 leukemia) | GI50 (OVCAR-8 ovarian) | GI50 (SK-MEL-2 melanoma) | GI50 (SK-MEL-28 melanoma) |
| --- | --- | --- | --- | --- | --- | --- | --- | --- | --- | --- | --- | --- | --- | --- | --- |
| CCOC(=O)[C@H]1Nc2ccc(Cl)cc2[C@H]2c3ccccc3O[C@H]21 | > 100 µM | > 100 µM | > 100 µM | > 100 µM | > 100 µM | > 100 µM | > 100 µM | – | – | – | – | – | – | – | – |
| OCCO[P+]1(OCCO)n2c3ccc2C(c2ccccc2)=C2C=CC(=N2)C(c2ccccc2)=c2ccc(n21)=C(c1ccccc1)C1=NC(=C3c2ccccc2)C=C1 | 2.59 µM | 0.701 µM | 0.17 µM | – | 0.0438 µM | 0.466 µM | 0.273 µM | 0.206 µM | 0.327 µM | 41.4 µM | – | – | – | – | – |
| CC(C)CCC[C@@H](C)[C@H]1CCC2C3=CCC4C(=O)C=CC(=O)C4C3CC[C@@]21C (stereo partly specified) | – | > 100 µM | – | – | – | > 100 µM | – | > 20.9 µM | – | – | 0.528 µM | 0.373 µM | 0.0726 µM | 1.14 µM | 0.449 µM |
| O=C(NN1C(=O)C=CC1=O)c1ccccc1Nc1ccccc1C(=O)NN1C(=O)C=CC1=O | > 100 µM | > 100 µM | > 100 µM | > 100 µM | > 100 µM | > 100 µM | > 100 µM | – | > 100 µM | > 100 µM | – | – | – | – | – |
| Clc1ncnc2c1ncn2CCCCCCCCCCCCn1cnc2c(Cl)ncnc21 | 7.68 µM | 42.9 µM | 23.8 µM | 27.8 µM | 26.4 µM | 6.82 µM | – | – | 10.8 µM | – | – | – | – | – | – |
| COc1ccc(C(O)/C(=C/n2ccnc2)c2ccccc2)cc1OC (stereo unspecified) | – | > 100 µM | > 100 µM | > 100 µM | > 100 µM | > 100 µM | > 100 µM | – | > 100 µM | – | – | – | – | – | – |
| CC[C@@H]1CC[C@@H]2[C@H](CC[C@]3(C)[C@@H](OS(=O)(=O)c4ccc(C)cc4)CC[C@@H]23)[C@H]1CO | > 100 µM | > 100 µM | > 100 µM | > 100 µM | – | > 100 µM | > 100 µM | > 100 µM | > 100 µM | > 100 µM | – | – | – | – | – |
| CCCCCCOc1ccc(NC2=C(Cl)C(=O)c3ncccc3C2=O)cc1 | – | > 10 µM | > 10 µM | 3.3 µM | – | 3.04 µM | 3.93 µM | 9 µM | 4.34 µM | – | – | – | – | – | – |
| COC(=O)c1cccc(C(=O)OC)c1 | > 100 µM | > 100 µM | – | – | > 100 µM | > 100 µM | > 100 µM | – | > 100 µM | – | – | – | – | – | – |
| O=C1/C(=C/c2ccco2)NC(=S)N1CN1CCOCC1 | – | > 100 µM | > 100 µM | – | > 100 µM | > 100 µM | > 100 µM | > 100 µM | > 100 µM | > 100 µM | – | – | – | – | – |
| C=CCN(CC=C)CC(C(C)=O)C(c1ccccc1)c1c(O)c2ccccc2oc1=O (stereo unspecified) | > 100 µM | > 100 µM | > 100 µM | > 100 µM | > 100 µM | > 100 µM | > 100 µM | – | > 100 µM | – | – | – | – | – | – |
| COc1nc2[nH]ccc2c(=O)n1C | 57.6 µM | > 100 µM | > 100 µM | > 100 µM | > 100 µM | > 100 µM | > 100 µM | – | > 100 µM | – | – | – | – | – | – |
| COc1ccccc1NC(=O)CC(=O)NNCC(=O)Nc1nnc(-c2ccccc2)o1 | > 100 µM | > 100 µM | > 100 µM | > 100 µM | > 100 µM | > 100 µM | > 100 µM | – | > 100 µM | – | – | – | – | – | – |

— PubChem BioAssay (NCI)
